Data taken from ChEMBL document CHEMBL1201862, “PubChem BioAssay data set” (2004).
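Step 1: Grow cells in 96-well plates. Step 2: Expose to compound for 48 hours at 5 concentrations. Step 3: Interpolate endpoints linearly; if unreached, use highest concentration. GI50 marks 50% less growth.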 Calls of active or inactive are those of the source. Rule as the data show it: active = GI50 up to about 1.1 µM and inactive = higher.

How the values were obtained:
Assay in all cases: DTP human tumour cell line panel, 48 h
[1] = test system: M14
[2] = test system: HOP-62
[3] = test system: RPMI-8226
[4] = test system: HT-29
[5] = test system: SF-295
[6] = test system: Malme-3M
[7] = test system: SNB-75
[8] = test system: RXF 393
[9] = test system: MDA-N
[10] = test system: SF-268
[11] = test system: IGROV-1
[12] = test system: CCRF-CEM
[13] = test system: Hs-578T
[14] = test system: NCI-H23
[15] = test system: T47D
[16] = test system: COLO 205
[17] = test system: EKVX
[18] = test system: HCT-15
[19] = test system: OVCAR-5
[20] = test system: SW-620
[21] = test system: NCI-H522
[22] = test system: DU-145
[23] = test system: MDA-MB-435
[24] = test system: MOLT-4
[25] = test system: SK-MEL-5
[26] = test system: CAKI-1
[27] = test system: PC-3
[28] = test system: K562
[29] = test system: A498
[30] = test system: OVCAR-8
[31] = test system: 786-0
[32] = test system: NCI-H460
[33] = test system: ACHN
[34] = test system: HOP-92
[35] = test system: BT-549
[36] = test system: HL-60
[37] = test system: LOX IMVI
[38] = test system: TK-10
[39] = test system: U-251
[40] = test system: UO-31
[41] = test system: NCI/ADR-RES
[42] = test system: OVCAR-3
[43] = test system: HCT-116
[44] = test system: HCC 2998
[45] = test system: MCF7
[46] = test system: SK-MEL-28
[47] = test system: SN12C
[48] = test system: UACC-62
[49] = test system: SNB-19
[50] = test system: OVCAR-4
[51] = test system: SK-MEL-2
[52] = test system: A549
[53] = test system: UACC-257
[54] = test system: MDA-MB-231
[55] = test system: SK-OV-3
[56] = test system: NCI-H226
[57] = test system: SF-539
[58] = test system: KM12

Question: Which GI50 [1] does the source give for `Nc1nc(Cl)c(/N=N/c2ccc(Cl)cc2)c(NCC2(CO)CCC(CCc3ccccc3)C2)n1` (stereo not drawn) here?
Answer: 8.81 µM (inactive)

Question: What about the GI50 [2] of the same molecule?
Answer: 13.7 µM (inactive)

Question: What about the GI50 [3] of the same molecule?
Answer: 12.1 µM (inactive)

Question: What about the GI50 [4] of the same molecule?
Answer: 12.1 µM (inactive)

Question: What about the GI50 [5] of the same molecule?
Answer: 11 µM (inactive)

Question: What about the GI50 [6] of the same molecule?
Answer: 14.8 µM (inactive)

Question: What about the GI50 [7] of the same molecule?
Answer: 13.6 µM (inactive)

Question: What about the GI50 [8] of the same molecule?
Answer: 7.8 µM (inactive)

Question: And the GI50 [9]?
Answer: 11.4 µM (inactive)

Question: And the GI50 [10]?
Answer: 6.22 µM (inactive)

Question: And the GI50 [11]?
Answer: 6.22 µM (inactive)

Question: And the GI50 [12]?
Answer: 1.21 µM (inactive)

Question: What about the GI50 [13] of the same molecule?
Answer: 8.51 µM (inactive)

Question: What about the GI50 [14] of the same molecule?
Answer: 1.26 µM (inactive)

Question: What about the GI50 [15] of the same molecule?
Answer: 3.94 µM (inactive)

Question: What about the GI50 [16] of the same molecule?
Answer: 4.86 µM (inactive)

Question: And the GI50 [17]?
Answer: 8.79 µM (inactive)

Question: And the GI50 [18]?
Answer: 6.87 µM

Question: And the GI50 [19]?
Answer: 15.4 µM (inactive)

Question: And the GI50 [20]?
Answer: 3.92 µM (inactive)

Question: And the GI50 [21]?
Answer: 1.31 µM (inactive)

Question: And the GI50 [22]?
Answer: 13.2 µM (inactive)

Question: What about the GI50 [23] of the same molecule?
Answer: 9.98 µM (inactive)

Question: What about the GI50 [24] of the same molecule?
Answer: 1.29 µM (inactive)

Question: What about the GI50 [25] of the same molecule?
Answer: 1.37 µM (inactive)

Question: What about the GI50 [26] of the same molecule?
Answer: 2.8 µM (inactive)

Question: What about the GI50 [27] of the same molecule?
Answer: 12.2 µM (inactive)

Question: What about the GI50 [28] of the same molecule?
Answer: 0.841 µM (active)

Question: And the GI50 [29]?
Answer: 13.2 µM (inactive)

Question: And the GI50 [30]?
Answer: 5.4 µM (inactive)

Question: What about the GI50 [31] of the same molecule?
Answer: 6.32 µM (inactive)

Question: And the GI50 [32]?
Answer: 12.7 µM (inactive)

Question: What about the GI50 [33] of the same molecule?
Answer: 5.97 µM (inactive)

Question: And the GI50 [34]?
Answer: 11.1 µM (inactive)

Question: What about the GI50 [35] of the same molecule?
Answer: 6.81 µM (inactive)

Question: What about the GI50 [36] of the same molecule?
Answer: 4.14 µM (inactive)

Question: And the GI50 [37]?
Answer: 1.79 µM (inactive)

Question: And the GI50 [38]?
Answer: 13.8 µM (inactive)

Question: And the GI50 [39]?
Answer: 14.1 µM (inactive)

Question: What about the GI50 [40] of the same molecule?
Answer: 2.1 µM (inactive)

Question: What about the GI50 [41] of the same molecule?
Answer: 4.56 µM (inactive)

Question: What about the GI50 [42] of the same molecule?
Answer: 11 µM (inactive)

Question: What about the GI50 [43] of the same molecule?
Answer: 6.11 µM (inactive)

Question: And the GI50 [44]?
Answer: 5.97 µM (inactive)

Question: And the GI50 [45]?
Answer: 5.62 µM (inactive)

Question: What about the GI50 [46] of the same molecule?
Answer: 14.2 µM (inactive)

Question: What about the GI50 [47] of the same molecule?
Answer: 9.46 µM (inactive)

Question: What about the GI50 [48] of the same molecule?
Answer: 10.4 µM (inactive)

Question: And the GI50 [49]?
Answer: 19.5 µM (inactive)

Question: What about the GI50 [50] of the same molecule?
Answer: 1.5 µM (inactive)

Question: What about the GI50 [51] of the same molecule?
Answer: 13.6 µM (inactive)

Question: And the GI50 [52]?
Answer: 14.1 µM (inactive)

Question: What about the GI50 [53] of the same molecule?
Answer: 10.6 µM (inactive)

Question: And the GI50 [54]?
Answer: 12.2 µM (inactive)

Question: What about the GI50 [55] of the same molecule?
Answer: 12 µM (inactive)

Question: What about the GI50 [56] of the same molecule?
Answer: 1.91 µM (inactive)

Question: What about the GI50 [57] of the same molecule?
Answer: 14.2 µM (inactive)

Question: What about the GI50 [58] of the same molecule?
Answer: 13.2 µM (inactive)
